Reference: ChEMBL document CHEMBL5649166, “RIP3 induces apoptosis independent of pronecrotic kinase activity” (Mol Cell, 2014)
The source made the active and inactive calls. The calls are words filed in the database; no cut-off is given here.

Tests used:
[1] = molecular target: Angiopoietin-1 receptor (Homo sapiens) (UniProt Q02763); test: Inhibition of human TIE2/TEK using poly[Glu:Tyr] (4:1) as substrate at 1 uM in presence of 32P-ATP by Hotspot assay relative to control; values are per cent of control
Chain of Angiopoietin-1 receptor (Homo sapiens) (Q02763 whole entry): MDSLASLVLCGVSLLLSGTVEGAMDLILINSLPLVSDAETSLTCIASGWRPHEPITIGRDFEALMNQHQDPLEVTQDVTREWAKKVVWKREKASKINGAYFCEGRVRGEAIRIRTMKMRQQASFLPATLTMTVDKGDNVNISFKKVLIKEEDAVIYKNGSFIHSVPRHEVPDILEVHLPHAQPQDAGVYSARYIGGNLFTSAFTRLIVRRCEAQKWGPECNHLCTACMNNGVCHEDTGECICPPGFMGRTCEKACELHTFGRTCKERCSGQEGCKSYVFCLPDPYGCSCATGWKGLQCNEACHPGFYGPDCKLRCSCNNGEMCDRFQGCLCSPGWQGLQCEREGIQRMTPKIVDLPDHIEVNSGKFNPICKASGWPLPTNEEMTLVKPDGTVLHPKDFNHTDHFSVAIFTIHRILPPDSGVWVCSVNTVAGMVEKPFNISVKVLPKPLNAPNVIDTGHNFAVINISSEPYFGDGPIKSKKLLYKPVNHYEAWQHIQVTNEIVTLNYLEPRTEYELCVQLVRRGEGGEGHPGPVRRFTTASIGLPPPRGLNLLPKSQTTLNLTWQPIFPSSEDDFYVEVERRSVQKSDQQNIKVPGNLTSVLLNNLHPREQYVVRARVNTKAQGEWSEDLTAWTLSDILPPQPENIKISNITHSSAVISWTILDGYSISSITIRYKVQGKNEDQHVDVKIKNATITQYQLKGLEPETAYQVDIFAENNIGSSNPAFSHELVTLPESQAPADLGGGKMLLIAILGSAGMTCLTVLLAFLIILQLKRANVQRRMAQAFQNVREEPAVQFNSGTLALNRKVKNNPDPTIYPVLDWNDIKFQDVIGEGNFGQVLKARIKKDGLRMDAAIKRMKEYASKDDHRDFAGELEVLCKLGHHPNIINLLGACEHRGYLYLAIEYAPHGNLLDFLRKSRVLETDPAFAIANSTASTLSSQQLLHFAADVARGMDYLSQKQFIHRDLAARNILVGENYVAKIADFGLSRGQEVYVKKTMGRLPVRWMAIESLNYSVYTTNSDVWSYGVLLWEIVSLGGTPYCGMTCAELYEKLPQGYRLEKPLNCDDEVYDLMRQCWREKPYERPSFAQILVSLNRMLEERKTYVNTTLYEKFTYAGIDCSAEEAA

[2] = molecular target: T1, Serine/threonine-protein kinase TAO1 (Homo sapiens) (UniProt Q7L7X3); test: Inhibition of human TAOK1 using myelin basic protein as substrate at 1 uM in presence of 32P-ATP by Hotspot assay relative to control; values are per cent of control
T1 sequence (whole entry): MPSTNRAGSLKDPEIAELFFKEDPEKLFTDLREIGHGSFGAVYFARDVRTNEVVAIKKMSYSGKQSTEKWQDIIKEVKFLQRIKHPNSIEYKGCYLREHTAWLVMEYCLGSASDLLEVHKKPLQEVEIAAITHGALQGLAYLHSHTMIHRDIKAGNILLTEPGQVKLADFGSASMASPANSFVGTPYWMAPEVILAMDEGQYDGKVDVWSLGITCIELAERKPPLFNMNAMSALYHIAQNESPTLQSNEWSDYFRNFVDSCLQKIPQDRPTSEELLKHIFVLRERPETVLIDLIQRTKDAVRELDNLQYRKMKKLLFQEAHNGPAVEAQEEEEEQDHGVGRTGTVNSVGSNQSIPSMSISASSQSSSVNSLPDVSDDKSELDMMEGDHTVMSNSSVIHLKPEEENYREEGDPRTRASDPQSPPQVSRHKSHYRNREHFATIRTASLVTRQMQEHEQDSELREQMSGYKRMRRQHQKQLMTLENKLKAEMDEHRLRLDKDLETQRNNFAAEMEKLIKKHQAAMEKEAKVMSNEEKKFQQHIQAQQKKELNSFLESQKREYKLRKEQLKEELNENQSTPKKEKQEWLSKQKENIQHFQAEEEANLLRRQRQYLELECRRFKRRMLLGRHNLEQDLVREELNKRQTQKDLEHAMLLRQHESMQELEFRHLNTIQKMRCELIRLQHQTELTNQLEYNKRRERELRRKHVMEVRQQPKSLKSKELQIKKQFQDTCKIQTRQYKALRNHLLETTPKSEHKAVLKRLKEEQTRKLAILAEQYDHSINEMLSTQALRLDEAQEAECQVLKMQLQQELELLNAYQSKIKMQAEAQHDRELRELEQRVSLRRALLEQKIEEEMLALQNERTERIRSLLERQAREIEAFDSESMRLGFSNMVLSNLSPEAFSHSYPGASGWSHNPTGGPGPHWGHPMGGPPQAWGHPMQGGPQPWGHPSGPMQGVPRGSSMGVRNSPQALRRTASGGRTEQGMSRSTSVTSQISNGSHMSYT

[3] = molecular target: NT-3 growth factor receptor (Homo sapiens) (UniProt Q16288); test: Inhibition of human TRKC using poly[Glu:Tyr] (4:1) as substrate at 1 uM in presence of 32P-ATP by Hotspot assay relative to control; values are per cent of control
Chain of NT-3 growth factor receptor (Homo sapiens) (Q16288 32-839 limits assumed): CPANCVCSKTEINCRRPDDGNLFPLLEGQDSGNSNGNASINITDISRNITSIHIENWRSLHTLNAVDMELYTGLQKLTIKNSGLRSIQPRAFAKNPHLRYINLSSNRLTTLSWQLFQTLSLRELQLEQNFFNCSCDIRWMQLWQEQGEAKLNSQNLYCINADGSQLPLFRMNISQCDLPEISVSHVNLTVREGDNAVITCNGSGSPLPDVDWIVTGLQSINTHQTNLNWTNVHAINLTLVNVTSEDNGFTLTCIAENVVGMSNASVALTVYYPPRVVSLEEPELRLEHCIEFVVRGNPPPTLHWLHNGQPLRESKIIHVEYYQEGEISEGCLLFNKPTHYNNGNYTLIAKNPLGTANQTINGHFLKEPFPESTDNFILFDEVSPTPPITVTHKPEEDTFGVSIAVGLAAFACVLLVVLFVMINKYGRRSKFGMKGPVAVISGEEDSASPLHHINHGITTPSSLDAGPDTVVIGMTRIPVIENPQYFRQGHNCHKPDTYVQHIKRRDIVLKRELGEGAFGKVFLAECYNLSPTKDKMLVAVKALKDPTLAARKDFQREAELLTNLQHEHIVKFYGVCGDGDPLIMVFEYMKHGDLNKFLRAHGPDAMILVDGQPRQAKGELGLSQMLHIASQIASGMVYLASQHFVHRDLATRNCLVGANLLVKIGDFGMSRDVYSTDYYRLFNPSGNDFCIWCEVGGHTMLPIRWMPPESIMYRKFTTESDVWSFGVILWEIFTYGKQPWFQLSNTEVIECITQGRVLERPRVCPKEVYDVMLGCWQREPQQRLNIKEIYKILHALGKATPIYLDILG

[4] = molecular target: T2, Protein kinase C epsilon type (Homo sapiens) (UniProt Q02156); test: Inhibition of human PKCepsilon using ERMRPRKRQGSVRRRV as substrate at 1 uM in presence of 32P-ATP by Hotspot assay relative to control; values are per cent of control
T2 sequence (whole entry): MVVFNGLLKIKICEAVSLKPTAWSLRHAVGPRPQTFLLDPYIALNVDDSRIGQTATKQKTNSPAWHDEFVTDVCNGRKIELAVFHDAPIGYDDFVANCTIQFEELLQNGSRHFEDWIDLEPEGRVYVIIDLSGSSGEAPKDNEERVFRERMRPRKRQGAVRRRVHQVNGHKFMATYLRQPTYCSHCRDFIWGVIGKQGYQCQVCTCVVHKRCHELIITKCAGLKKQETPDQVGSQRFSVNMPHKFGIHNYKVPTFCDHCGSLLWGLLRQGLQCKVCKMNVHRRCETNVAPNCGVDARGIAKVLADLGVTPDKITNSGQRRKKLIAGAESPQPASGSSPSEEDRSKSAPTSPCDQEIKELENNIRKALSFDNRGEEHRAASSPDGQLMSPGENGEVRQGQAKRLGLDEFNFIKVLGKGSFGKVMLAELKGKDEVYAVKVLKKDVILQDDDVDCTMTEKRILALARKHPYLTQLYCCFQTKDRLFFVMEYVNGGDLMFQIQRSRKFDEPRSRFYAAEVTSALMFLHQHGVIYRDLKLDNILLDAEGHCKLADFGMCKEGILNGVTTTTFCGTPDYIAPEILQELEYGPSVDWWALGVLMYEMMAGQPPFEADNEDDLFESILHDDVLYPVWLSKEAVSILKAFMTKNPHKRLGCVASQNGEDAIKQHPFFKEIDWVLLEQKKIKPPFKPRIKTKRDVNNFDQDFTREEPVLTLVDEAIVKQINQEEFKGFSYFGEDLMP

[5] = molecular target: Vascular endothelial growth factor receptor 3 (Homo sapiens) (UniProt P35916); test: Inhibition of human FLT4/VEGFR3 using poly[Glu:Tyr] (4:1) as substrate at 1 uM in presence of 32P-ATP by Hotspot assay relative to control; values are per cent of control
Chain of Vascular endothelial growth factor receptor 3 (Homo sapiens) (P35916 whole entry): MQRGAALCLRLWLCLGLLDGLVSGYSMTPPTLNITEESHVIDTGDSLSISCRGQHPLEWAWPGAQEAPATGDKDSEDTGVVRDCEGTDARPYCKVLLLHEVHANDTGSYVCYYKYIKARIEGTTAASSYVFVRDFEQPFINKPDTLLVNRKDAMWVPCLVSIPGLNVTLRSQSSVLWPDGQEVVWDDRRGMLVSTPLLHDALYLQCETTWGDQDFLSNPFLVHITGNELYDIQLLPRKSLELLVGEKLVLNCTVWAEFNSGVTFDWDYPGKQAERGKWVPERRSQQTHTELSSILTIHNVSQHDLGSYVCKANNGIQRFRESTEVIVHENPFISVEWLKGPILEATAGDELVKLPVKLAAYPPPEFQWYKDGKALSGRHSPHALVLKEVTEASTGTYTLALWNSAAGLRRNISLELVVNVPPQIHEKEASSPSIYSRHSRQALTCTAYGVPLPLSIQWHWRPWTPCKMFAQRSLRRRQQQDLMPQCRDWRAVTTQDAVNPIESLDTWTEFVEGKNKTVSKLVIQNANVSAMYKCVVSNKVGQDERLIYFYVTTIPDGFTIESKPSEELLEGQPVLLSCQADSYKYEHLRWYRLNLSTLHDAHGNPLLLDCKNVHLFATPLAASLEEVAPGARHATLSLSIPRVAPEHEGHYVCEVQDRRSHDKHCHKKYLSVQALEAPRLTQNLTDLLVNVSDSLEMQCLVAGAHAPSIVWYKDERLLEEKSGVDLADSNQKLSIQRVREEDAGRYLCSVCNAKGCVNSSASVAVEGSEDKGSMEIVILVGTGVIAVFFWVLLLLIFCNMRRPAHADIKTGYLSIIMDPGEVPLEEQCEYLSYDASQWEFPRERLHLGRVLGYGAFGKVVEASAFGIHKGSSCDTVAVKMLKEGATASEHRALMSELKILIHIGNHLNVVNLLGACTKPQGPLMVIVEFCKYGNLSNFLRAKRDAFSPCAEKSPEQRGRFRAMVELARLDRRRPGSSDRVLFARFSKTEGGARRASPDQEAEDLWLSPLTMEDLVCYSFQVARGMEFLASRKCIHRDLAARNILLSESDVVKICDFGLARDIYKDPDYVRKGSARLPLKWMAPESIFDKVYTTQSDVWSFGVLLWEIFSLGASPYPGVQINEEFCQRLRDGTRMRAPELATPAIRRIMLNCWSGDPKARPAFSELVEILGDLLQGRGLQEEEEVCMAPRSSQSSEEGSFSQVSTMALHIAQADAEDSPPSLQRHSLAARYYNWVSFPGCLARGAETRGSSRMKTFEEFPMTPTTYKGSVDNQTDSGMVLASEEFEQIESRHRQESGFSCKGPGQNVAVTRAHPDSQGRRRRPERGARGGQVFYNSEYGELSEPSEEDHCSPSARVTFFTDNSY

[6] = molecular target: T3, Aurora kinase A (Homo sapiens) (UniProt O14965); test: Inhibition of human Aurora A using H-LRRASLG as substrate at 1 uM in presence of 32P-ATP by Hotspot assay relative to control; values are per cent of control
T3 sequence (whole entry): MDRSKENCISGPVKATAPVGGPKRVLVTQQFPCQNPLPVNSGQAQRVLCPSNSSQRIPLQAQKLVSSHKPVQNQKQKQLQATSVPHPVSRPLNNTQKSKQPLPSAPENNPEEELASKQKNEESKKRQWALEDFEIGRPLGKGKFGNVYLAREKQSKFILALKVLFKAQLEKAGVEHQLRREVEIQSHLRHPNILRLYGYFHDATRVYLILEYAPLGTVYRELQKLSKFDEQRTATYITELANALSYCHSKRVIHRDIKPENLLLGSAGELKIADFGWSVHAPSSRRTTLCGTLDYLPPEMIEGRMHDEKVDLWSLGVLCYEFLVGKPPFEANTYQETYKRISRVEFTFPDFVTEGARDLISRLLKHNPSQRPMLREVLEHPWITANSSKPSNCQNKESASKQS

Neutrophil = test: Inhibition of TNF-alpha induced necroptosis in human neutrophil cells assessed as increase in cell viability incubated for 18 hrs in presence of zVAD and SMAC007 by Cell Titer-Glo luminescent cell viability assay; format: functional, cell-based
[7] = molecular target: RAC-beta serine/threonine-protein kinase (Homo sapiens) (UniProt P31751); test: Inhibition of human AKT2 using KGSGSGRPRTSSFAEG as substrate at 1 uM in presence of 32P-ATP by Hotspot assay relative to control; values are per cent of control
Chain of RAC-beta serine/threonine-protein kinase (Homo sapiens) (P31751 whole entry): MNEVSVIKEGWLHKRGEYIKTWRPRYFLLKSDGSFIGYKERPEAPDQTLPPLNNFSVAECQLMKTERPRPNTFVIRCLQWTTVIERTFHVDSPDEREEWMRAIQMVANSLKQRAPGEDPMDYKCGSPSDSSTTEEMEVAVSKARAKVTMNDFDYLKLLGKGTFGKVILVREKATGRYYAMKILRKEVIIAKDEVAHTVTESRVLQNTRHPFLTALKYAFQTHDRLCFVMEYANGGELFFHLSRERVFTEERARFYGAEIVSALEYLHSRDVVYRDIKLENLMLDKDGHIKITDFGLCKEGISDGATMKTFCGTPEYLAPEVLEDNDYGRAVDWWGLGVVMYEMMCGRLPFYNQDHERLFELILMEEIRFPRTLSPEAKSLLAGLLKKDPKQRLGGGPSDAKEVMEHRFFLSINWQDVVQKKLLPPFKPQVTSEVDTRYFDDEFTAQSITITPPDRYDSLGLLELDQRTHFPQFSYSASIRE

SMILES | residual activity [1] [%] | residual activity [2] [%] | residual activity [3] [%] | residual activity [4] [%] | residual activity [5] [%] | residual activity [6] [%] | inhibition (Neutrophil) | residual activity [7] [%]
CNC(=O)c1ccc2c(c1)ncn2-c1ccc(CC(=O)OC(C)(C)C)cc1 | 87.2 | 98.8 | 98 | 96.7 | 78.8 | 101 | Active | 96.8
Cc1cc(-c2cnc(N)c3c(-c4ccc5scnc5c4)csc23)n(C)n1 | 94.2 | 92.6 | 95.3 | 103 | 103 | 99 | Active | 95.4
CC(C)S(=O)(=O)c1ccc2nccc(Nc3ccc4scnc4c3)c2c1 | 98.7 | 93.8 | 87.2 | 96 | 83.1 | 95.9 | Active | 89
